According to the NIST ThermoML archive (doi:10.1021/je100552a):
± gives the expanded uncertainty stated by the source.

test: not given; settings: 298.15 K; 101.33 kPa; Liquid; Capillary tube (Ostwald / Ubbelohde) method

SMILES	viscosity [mPa·s]
Brc1ccccc1 [bromobenzene]	1.082 ± 0.0085
Clc1ccccc1 [chlorobenzene]	0.7568 ± 0.0062
ClCCCl [1,2-dichloroethane]	0.7902 ± 0.0064

same assay, conditions: 298.15 K; 101.33 kPa; Liquid; Vibrating tube method

SMILES	mass density [kg/m3]
Brc1ccccc1 [bromobenzene]	1489.4 ± 0.7
Clc1ccccc1 [chlorobenzene]	1100.4 ± 0.3
ClCCCl [1,2-dichloroethane]	1246.7 ± 0.4

same assay, conditions: 303.15 K; 101.33 kPa; Liquid; Capillary tube (Ostwald / Ubbelohde) method

SMILES	viscosity [mPa·s]
Brc1ccccc1 [bromobenzene]	1.015 ± 0.008
Clc1ccccc1 [chlorobenzene]	0.7258 ± 0.0059
ClCCCl [1,2-dichloroethane]	0.7291 ± 0.006

same assay, conditions: 303.15 K; 101.33 kPa; Liquid; Vibrating tube method

SMILES	mass density [kg/m3]
Brc1ccccc1 [bromobenzene]	1481.1 ± 0.7
Clc1ccccc1 [chlorobenzene]	1094.9 ± 0.3
ClCCCl [1,2-dichloroethane]	1240.8 ± 0.4

same assay, conditions: 308.15 K; 101.33 kPa; Liquid; Capillary tube (Ostwald / Ubbelohde) method

SMILES	viscosity [mPa·s]
Brc1ccccc1 [bromobenzene]	0.954 ± 0.0076
Clc1ccccc1 [chlorobenzene]	0.677 ± 0.0056
ClCCCl [1,2-dichloroethane]	0.6739 ± 0.0056

same assay, conditions: 308.15 K; 101.33 kPa; Liquid; Vibrating tube method

SMILES	mass density [kg/m3]
Brc1ccccc1 [bromobenzene]	1475.8 ± 0.7
Clc1ccccc1 [chlorobenzene]	1089.4 ± 0.3
ClCCCl [1,2-dichloroethane]	1230.5 ± 0.4

same assay, conditions: 313.15 K; 101.33 kPa; Liquid; Capillary tube (Ostwald / Ubbelohde) method

SMILES	viscosity [mPa·s]
Brc1ccccc1 [bromobenzene]	0.878 ± 0.0071
Clc1ccccc1 [chlorobenzene]	0.624 ± 0.0052
ClCCCl [1,2-dichloroethane]	0.6441 ± 0.0053

same assay, conditions: 313.15 K; 101.33 kPa; Liquid; Vibrating tube method

SMILES	mass density [kg/m3]
Brc1ccccc1 [bromobenzene]	1467.3 ± 0.6
Clc1ccccc1 [chlorobenzene]	1083.9 ± 0.3
ClCCCl [1,2-dichloroethane]	1225.6 ± 0.4

test: refractive index (Na D-line) (dimensionless); settings: 298.15 K; 101.33 kPa; Liquid; Standard Abbe refractometry

SMILES	refractive index
Brc1ccccc1 [bromobenzene]	1.5578 ± 0.0005
Clc1ccccc1 [chlorobenzene]	1.5222 ± 0.0005
ClCCCl [1,2-dichloroethane]	1.4416 ± 0.0005

same assay, conditions: 303.15 K; 101.33 kPa; Liquid; Standard Abbe refractometry

SMILES	refractive index
Brc1ccccc1 [bromobenzene]	1.5538 ± 0.0005
Clc1ccccc1 [chlorobenzene]	1.5192 ± 0.0005
ClCCCl [1,2-dichloroethane]	1.4383 ± 0.0005

same assay, conditions: 308.15 K; 101.33 kPa; Liquid; Standard Abbe refractometry

SMILES	refractive index
Brc1ccccc1 [bromobenzene]	1.5514 ± 0.0005
Clc1ccccc1 [chlorobenzene]	1.5163 ± 0.0005
ClCCCl [1,2-dichloroethane]	1.4336 ± 0.0005

same assay, conditions: 313.15 K; 101.33 kPa; Liquid; Standard Abbe refractometry

SMILES	refractive index
Brc1ccccc1 [bromobenzene]	1.5468 ± 0.0005
Clc1ccccc1 [chlorobenzene]	1.5115 ± 0.0005
ClCCCl [1,2-dichloroethane]	1.4311 ± 0.0005
